Measurements reported in US12240854B2, “TRAF 6 inhibitors” (Helmholtz Zentrum München - Deutsches Forschungszentrum für …, priority 2018, dated 2025).
Entries after “also recorded” stand apart in the source; their conditions may differ.

Columns and labels:
TRAF6 = target: T1, TRAF6 (Homo sapiens, UniProt Q9Y4K3); experiment: In vitro ubiquitination assay (Western blot), TRAF6 with Ubc13/Uev1a; format: biochemical
T1 construct: GST (N, cleaved yes); made in house; host or cells: E. coli BL21 codon plus RIPL (TRAF6); E1, E2 complex and ubiquitin from Boston Biochem
T1 sequence (Q9Y4K3 with tags, fused parts or gaps): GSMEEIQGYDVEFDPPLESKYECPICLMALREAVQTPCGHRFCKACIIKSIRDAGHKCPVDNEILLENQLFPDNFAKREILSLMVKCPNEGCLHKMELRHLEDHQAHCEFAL
Procedure: The ability of TRAF6 to form K63-linked poly-ubiquitin chains in conjunction with Ubc13 was analyzed after compound treatment. Therefore, untagged TRAF6WT and TRAF6D57K, respectively were recombinantly purified. 0.125 μM of TRAF6 protein was pre-incubated with DMSO or compound in a total volume of 100 μL in K63 assay buffer ([…] Tris —HCl pH 7.6; […] MgCL2; […] creatine phosphate; 0.3 U/mL inorganic pyrophosphatase; 0.3 U/mL creatine phosphokinase) for 30 minutes at room temperature. Small aliquots for input samples were taken. A master mix containing 0.01 μM E1-activating enzyme (UBE1) (Boston Biochem), 0.2 μM E2-conjugating enzyme complex (Ubc13/Uev1a) (Boston Biochem), 1 mM ZnCl2, 2 mM ATP und 4 μM mono-ubiquitin (Boston Biochem) was added to the TRAF6 protein and the reaction mixture was incubated for 120 minutes at 37° C. The reaction was stopped by adding 4×SDS loading buffer and boiling at 95° C. for 5 minutes. The input samples were analyzed using the Pierce Silver Stain Kit (Thermo Fisher Scientific). Ubiquitination was detected in Western Blot analysis using an ubiquitin antibody.

[1] = system: Diet-Induced-Obesity (DIO) mice; experiment: Diet-Induced-Obesity (DIO) mouse study; format: in vivo; conditions: 7.4 mg/kg IP once daily
Procedure: Mice were fed a high-fat-diet until they reached a body weight of at least 40 g and developed […]. These mice were separated in control group and a group for C25-140 (compound 3) injection. Mice were treated every day with 14 μmol/kg (=7.4 mg/kg) C25-140 intraperitoneally for a period of 20 days. Thereby, C25-140 was dissolved in 2.9% DMSO, 1.5% Tween-80 and 1×PBS. Every day before injection, the body weight and food intake were measured. On day 20, mice were sacrificed two hours after compound injection and […] white adipose tissue from both body sites was removed, frozen in liquid nitrogen and stored at −80° C.

[2] = system: IKK kinase activity in MEF cells; experiment: IKK kinase assay in MEF cells; format: cell-based, mouse
Procedure: (§1) For MEF cells, 5.5×10^5 cells were seeded, then treated with compound for 6 hours and eventually stimulated with IL-1β or TNFα for 8 minutes. 1×10^6 Jurkat T-cells were treated with compound for 6 hours and finally stimulated with PMA (400 ng/ml) and lonomycin (600 ng/ml) for 8 minutes. After cell lysis in Co-IP lysis buffer (150 mM NaCl; 25 mM Hepes (pH 7.5); 0.2% NP-40; 1 mM Glycerol; 10 mM NaF; 8 mM β-Glycerophosphat; 1 mM DTT; 300 μM Sodium-vanadate; complete protease inhibitor), input samples were taken and the supernatant was then incubated with 6 μL IKKγ antibody FL-419 (Santa Cruz Biotechnology). Upon incubation with Protein-G-Sepharose beads (GE Healthcare), beads were washed in Co-IP wash buffer (150 mM NaCl; 25 mM Hepes (pH 7.5); 0.2% NP-40; 1 mM Glycerol) and transferred into kinase reaction buffer ([…] HEPES pH7.9; 10 mM MgCl2; 20 μM ATP; 20 mM β-Glycerophosphat; 200 μM Sodium-Vanadate; 1 mM DTT) supplemented with […] GST-IκBα (1-53) and 0.5 μL ^32P-γ-ATP. After 30 minutes incubation at 37° C., reaction was stopped and analyzed by autoradiography as well as Western Blot after separation on SDS-PAGE.

ADME: plasma stability = format: in vitro ADME
Procedure: (§2) All ADME (plasma stability, plasma protein binding, microsomal stability, Log D, Caco-2 assay, CYP450 inhibition and hERG predictor assay) as well as pharmacokinetic studies (Tmax, Cmax, AUC0-240min, Mean Residence Time, Elimination half life, Elimination rate constant, Volume of Distribution and Clearance) of C25-140 (compound 3) were conducted by Bienta Enamine Biology Services of Bienta/Enamine Ltd.

CYP450 = experiment: ADME: CYP450 inhibition; format: in vitro ADME
Procedure: as §2

E6AP = target: T2, E6AP (Homo sapiens, UniProt Q05086); experiment: In vitro ubiquitination assay, E6AP ubiquitin ligase kit; format: biochemical
T2 construct: purchased Boston Biochem
T2 sequence (Q05086 whole entry): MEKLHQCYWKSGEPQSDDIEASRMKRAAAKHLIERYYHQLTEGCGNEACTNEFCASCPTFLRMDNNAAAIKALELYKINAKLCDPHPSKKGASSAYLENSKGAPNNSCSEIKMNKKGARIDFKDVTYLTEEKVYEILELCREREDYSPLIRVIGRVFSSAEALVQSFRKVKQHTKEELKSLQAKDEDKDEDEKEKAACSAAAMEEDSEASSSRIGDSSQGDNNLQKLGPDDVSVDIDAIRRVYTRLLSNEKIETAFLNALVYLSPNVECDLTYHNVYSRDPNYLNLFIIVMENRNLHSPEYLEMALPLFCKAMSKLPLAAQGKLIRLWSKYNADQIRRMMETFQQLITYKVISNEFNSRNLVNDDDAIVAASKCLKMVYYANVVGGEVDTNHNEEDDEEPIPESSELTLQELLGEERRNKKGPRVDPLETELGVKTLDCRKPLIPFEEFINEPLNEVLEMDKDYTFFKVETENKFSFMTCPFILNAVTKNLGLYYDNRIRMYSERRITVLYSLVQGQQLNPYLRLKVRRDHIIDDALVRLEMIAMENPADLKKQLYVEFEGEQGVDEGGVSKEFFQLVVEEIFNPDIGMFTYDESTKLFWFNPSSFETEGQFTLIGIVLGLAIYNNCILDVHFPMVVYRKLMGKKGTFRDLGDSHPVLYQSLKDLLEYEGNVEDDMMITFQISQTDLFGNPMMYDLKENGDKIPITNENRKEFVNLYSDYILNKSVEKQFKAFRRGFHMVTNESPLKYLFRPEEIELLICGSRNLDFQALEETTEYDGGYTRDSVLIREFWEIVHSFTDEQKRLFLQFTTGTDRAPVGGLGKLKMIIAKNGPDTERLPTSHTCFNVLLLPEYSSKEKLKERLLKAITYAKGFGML
Procedure: For analysis of cIAP1, MDM2, TRIM63, RNF4, ITCH and E6AP mediated poly-ubiquitination, the respective ubiquitin ligase kit from Boston Biochem (K-102, K-260, K-200B, K-220, K-240 and K-270) was used. Here, reaction buffer, E1, E2 and E3 enzyme (and p53 substrate in case of MDM2) were mixed and pre-incubated with compound or DMSO for 5 minutes at room temperature before adding Mg^2+-ATP and mono-ubiquitin for reaction start. Ubiquitination was visualized by Western Blot analyses.

[3] = target: T3, TRAF6-Ubc13 binding in HEK293T cells (Homo sapiens, UniProt Q9Y4K3); experiment: Co-immunoprecipitation of HA-TRAF6 and Ubc13 in HEK 293T cells; format: cell-based
T3 construct: RING-Zincfinger1 (RZ1) domain (residues 50-159) of human TRAF6 wildtype; expressed in transfected cells; host or cells: HEK 293T
T3 sequence (Q9Y4K3 50-159): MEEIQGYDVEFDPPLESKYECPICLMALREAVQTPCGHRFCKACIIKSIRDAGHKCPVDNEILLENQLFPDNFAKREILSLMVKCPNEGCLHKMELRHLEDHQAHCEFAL
Procedure: To study the interaction of TRAF6 and Ubc13 in cells, 1×10^6 293T cells were seeded and after 18 hours cells were transfected with 1 μg pEF-HA empty or pEF-HA-TRAF6 RZ1 plasmid using the X-tremeGENE HP DNA transfection reagent (Roche). 6 hours upon transfection, cells were treated with compound or DMSO. After 42 hours further incubation, cells were harvested in Co-IP lysis buffer and HA-TRAF6 was immunoprecipitated with anti-HA affinity matrix (Roche). Binding of Ubc13 to TRAF6 was examined in Western Blot analysis.

[4] = system: IKK kinase activity in Jurkat T-cells; experiment: IKK kinase assay in Jurkat T-cells; format: cell-based, human; conditions: PMA/Ionomycin
Procedure: as §1

[5] = ADME: microsomal stability; format: in vitro ADME
Procedure: as §2

Cc1nn(-c2ccc3nnc(C)n3n2)c(C)c1CCC(=O)N1CCC(Cc2ccccc2)CC1 [Example C25-140, 1-(4-Benzylpiperidin-1-yl)-3-(3,5-dimethyl-1-(3-methyl-[1,2,4]-triazolo-[4,3-b]-pyridazin-6-yl)-1H-pyrazol-4-yl)-propan-1-one]
ability of TRAF6 and Ubc13 to form free poly-ubiquitin chains (TRAF6): dose-dependently diminished TRAF6 E3 ligase activity; also recorded: dose-dependently impairs | food intake ([1]; 20 days): did not differ; also recorded: remains unaffected | body weight gain ([1]; 20 days, high-fat-diet): reduces gain of weight; also recorded: hardly increased body weight; also recorded: milder body weight gain | mRNA levels of IL-1β and VCAM in epidermal white adipose tissue ([1]; day 20): reduces IL-1β expression; also recorded: significantly reduced; also recorded: decreased | IKK kinase activity, phosphorylation of IκBα ([2]; IL-1β stimulation): decreased IKK kinase activity; also recorded: decreased phosphorylation of IκBα | IKK kinase activity, phosphorylation of IκBα ([2]; TNFα stimulation): also affects | plasma stability (ADME: plasma stability): stable | CYP450 inhibition (CYP450): some inhibitory potential on selected CYPs | S5A ubiquitination by E6AP (E6AP): not influenced; also recorded: not affected | interaction of endogenous Ubc13 with HA-tagged TRAF6 (co-immunoprecipitation) [3]: reduced interaction; also recorded: most active analogs; also recorded: dose-dependently decreases; also recorded: demonstrated inhibition of TRAF6-Ubc13 binding | IKK kinase activity [4]: reduced; also recorded: diminished | microsomal stability [5]: stable
